Source: patent US6706740B2, “Fungicidal heterocyclic aromatic amides and their compositions, methods of use and preparation” (Dow AgroSciences LLC, priority 1999, dated 2004)

These compounds were tested on Ustilago maydis (USTIMA) (assay: microbe, parasite or virus in culture). Settings: not given.
Type: cell-based

Row | SMILES | USTIMA in vitro Growth Inhibition
1 | CON=C(c1ccc(NC(=O)c2nccc(OC)c2OC(C)=O)cc1)c1cccc(C(F)(F)F)c1 [Compound 707] | − (key: +: at least 80% growth inhibition; −: less than 80% growth inhibition)
2 | COCCC(=O)Oc1c(OC)ccnc1C(=O)Nc1ccc(C(=NOC)c2cccc(C(F)(F)F)c2)cc1 [Compound 708] | − (key: +: at least 80% growth inhibition; −: less than 80% growth inhibition)

Same assay, conditions: Mycosarcoma maydis, read-out: USTIMA in vitro Growth Inhibition

Row | SMILES | inhibition at 25 ppm
3 | COc1ccnc(C(=O)N[C@H]2COC(=O)[C@H](Cc3ccccc3)[C@@H](OC(=O)C(C)C)[C@H](C)OC2=O)c1OC(=O)c1ccc(Cl)nc1 [Compound 669] | < 80%
4 | COc1ccnc(C(=O)NCCCCCCCC(=O)Oc2ccc(C)c(Cl)c2)c1O [Compound 368] | < 80%
5 | COc1ccnc(C(=O)NCCCCCCCCCCCC(=O)OCCSc2ccccc2)c1O [Compound 364] | < 80%
6 | COc1ccnc(C(=O)N[C@H]2COC(=O)[C@H](Cc3ccccc3)[C@@H](OC(=O)C(C)C)[C@H](C)OC2=O)c1OC(=O)c1c(F)c(F)c(F)c(F)c1F [Compound 642] | < 80%
7 | CCCSC(=O)Oc1c(OC)ccnc1C(=O)N[C@H]1COC(=O)[C@H](Cc2ccccc2)[C@@H](OC(=O)C(C)C)[C@H](C)OC1=O [Compound 699] | < 80%
8 | COc1ccnc(C(=O)N[C@H]2COC(=O)[C@H](Cc3ccccc3)[C@@H](OC(=O)C(C)C)[C@H](C)OC2=O)c1OC(=O)CC(C)C [Compound 606] | < 80%
9 | COc1ccnc(C(=O)N[C@H]2COC(=O)[C@H](Cc3ccccc3)[C@@H](OC(=O)C(C)C)[C@H](C)OC2=O)c1OC(=O)c1ccc(Cl)cc1Cl [Compound 643] | < 80%

Each compound was assayed on Mycosphaerella graminicola (Septoria tritici—SEPTTR) (assay: In vitro fungal growth inhibition, Mycosphaerella graminicola (SEPTTR)). Settings: not given.
Type: cell-based

Row | SMILES | SEPTTR in vitro Growth Inhibition
10 | CON=C(c1ccc(NC(=O)c2nccc(OC)c2OC(C)=O)cc1)c1cccc(C(F)(F)F)c1 [Compound 707] | − (key: +: at least 80% growth inhibition; −: less than 80% growth inhibition)
11 | COCCC(=O)Oc1c(OC)ccnc1C(=O)Nc1ccc(C(=NOC)c2cccc(C(F)(F)F)c2)cc1 [Compound 708] | + (key: +: at least 80% growth inhibition; −: less than 80% growth inhibition)

Same assay, conditions: Zymoseptoria tritici; 25 ppm in growth medium; read-out: SEPTTR in vitro Growth Inhibition

Row | SMILES | inhibition at 25 ppm
12 | COc1ccnc(C(=O)N[C@H]2COC(=O)[C@H](Cc3ccccc3)[C@@H](OC(=O)C(C)C)[C@H](C)OC2=O)c1OC(=O)c1ccc(Cl)nc1 [Compound 669] | < 80%
13 | COc1ccnc(C(=O)NCCCCCCCC(=O)Oc2ccc(C)c(Cl)c2)c1O [Compound 368] | < 80%
14 | COc1ccnc(C(=O)NCCCCCCCCCCCC(=O)OCCSc2ccccc2)c1O [Compound 364] | < 80%
15 | COc1ccnc(C(=O)N[C@H]2COC(=O)[C@H](Cc3ccccc3)[C@@H](OC(=O)C(C)C)[C@H](C)OC2=O)c1OC(=O)c1c(F)c(F)c(F)c(F)c1F [Compound 642] | < 80%
16 | CCCSC(=O)Oc1c(OC)ccnc1C(=O)N[C@H]1COC(=O)[C@H](Cc2ccccc2)[C@@H](OC(=O)C(C)C)[C@H](C)OC1=O [Compound 699] | < 80%
17 | COc1ccnc(C(=O)N[C@H]2COC(=O)[C@H](Cc3ccccc3)[C@@H](OC(=O)C(C)C)[C@H](C)OC2=O)c1OC(=O)CC(C)C [Compound 606] | < 80%
18 | COc1ccnc(C(=O)N[C@H]2COC(=O)[C@H](Cc3ccccc3)[C@@H](OC(=O)C(C)C)[C@H](C)OC2=O)c1OC(=O)c1ccc(Cl)cc1Cl [Compound 643] | < 80%

The compounds below were run on Phytophthora infestans (PHYTIN) (assay: microbe, parasite or virus in culture). Settings: not given.
Type: cell-based

Row | SMILES | PHYTIN in vitro Growth Inhibition
19 | CON=C(c1ccc(NC(=O)c2nccc(OC)c2OC(C)=O)cc1)c1cccc(C(F)(F)F)c1 [Compound 707] | − (key: +: at least 80% growth inhibition; −: less than 80% growth inhibition)
20 | COCCC(=O)Oc1c(OC)ccnc1C(=O)Nc1ccc(C(=NOC)c2cccc(C(F)(F)F)c2)cc1 [Compound 708] | − (key: +: at least 80% growth inhibition; −: less than 80% growth inhibition)

Same assay, conditions: Phytophthora infestans, read-out: PHYTIN in vitro Growth Inhibition

Row | SMILES | inhibition at 25 ppm
21 | COc1ccnc(C(=O)N[C@H]2COC(=O)[C@H](Cc3ccccc3)[C@@H](OC(=O)C(C)C)[C@H](C)OC2=O)c1OC(=O)c1ccc(Cl)nc1 [Compound 669] | < 80%
22 | COc1ccnc(C(=O)NCCCCCCCC(=O)Oc2ccc(C)c(Cl)c2)c1O [Compound 368] | < 80%
23 | COc1ccnc(C(=O)NCCCCCCCCCCCC(=O)OCCSc2ccccc2)c1O [Compound 364] | < 80%
24 | COc1ccnc(C(=O)N[C@H]2COC(=O)[C@H](Cc3ccccc3)[C@@H](OC(=O)C(C)C)[C@H](C)OC2=O)c1OC(=O)c1c(F)c(F)c(F)c(F)c1F [Compound 642] | < 80%
25 | CCCSC(=O)Oc1c(OC)ccnc1C(=O)N[C@H]1COC(=O)[C@H](Cc2ccccc2)[C@@H](OC(=O)C(C)C)[C@H](C)OC1=O [Compound 699] | < 80%
26 | COc1ccnc(C(=O)N[C@H]2COC(=O)[C@H](Cc3ccccc3)[C@@H](OC(=O)C(C)C)[C@H](C)OC2=O)c1OC(=O)CC(C)C [Compound 606] | < 80%
27 | COc1ccnc(C(=O)N[C@H]2COC(=O)[C@H](Cc3ccccc3)[C@@H](OC(=O)C(C)C)[C@H](C)OC2=O)c1OC(=O)c1ccc(Cl)cc1Cl [Compound 643] | < 80%

The compounds below were run on Erysiphe graminis—ERYSGT (assay: Powdery Mildew of Wheat, in vivo whole plant, 24 Hour Protectant). Settings: Erysiphe; 100 ppm spray, wheat, 24 hour protectant, % control of fungal infection vs untreated plants; read-out: ERYSGT in vivo 1 Day Protectant.

Row | SMILES | pest or weed control at 100 ppm
28 | COc1ccnc(C(=O)N[C@H]2COC(=O)[C@H](Cc3ccccc3)[C@@H](OC(=O)C(C)C)[C@H](C)OC2=O)c1OC(=O)c1ccc(Cl)nc1 [Compound 669] | < 25%

Same assay, conditions: in vivo

Row | SMILES | ERYSGT in vivo 1 Day Protectant
29 | CON=C(c1ccc(NC(=O)c2nccc(OC)c2OC(C)=O)cc1)c1cccc(C(F)(F)F)c1 [Compound 707] | + +
30 | COCCC(=O)Oc1c(OC)ccnc1C(=O)Nc1ccc(C(=NOC)c2cccc(C(F)(F)F)c2)cc1 [Compound 708] | + +

These compounds were tested on Phytophthora infestans—PHYTIN (assay: whole plant or invertebrate). Settings: Phytophthora, in Solanum lycopersicum, 24 h, read-out: PHYTIN in vivo 1 Day Protectant.
Type: in vivo

Row | SMILES | pest or weed control at 100 ppm
31 | COc1ccnc(C(=O)N[C@H]2COC(=O)[C@H](Cc3ccccc3)[C@@H](OC(=O)C(C)C)[C@H](C)OC2=O)c1OC(=O)c1ccc(Cl)nc1 [Compound 669] | < 25%

These compounds were tested on Magnaporthe grisea (Pyricularia oryzae—PYRIOR) (assay: microbe, parasite or virus in culture). Settings: not given.
Type: cell-based

Row | SMILES | PYRIOR in vitro Growth Inhibition
32 | CON=C(c1ccc(NC(=O)c2nccc(OC)c2OC(C)=O)cc1)c1cccc(C(F)(F)F)c1 [Compound 707] | + (key: +: at least 80% growth inhibition; −: less than 80% growth inhibition)
33 | COCCC(=O)Oc1c(OC)ccnc1C(=O)Nc1ccc(C(=NOC)c2cccc(C(F)(F)F)c2)cc1 [Compound 708] | − (key: +: at least 80% growth inhibition; −: less than 80% growth inhibition)

Same assay, conditions: Pyricularia oryzae, read-out: PYRIOR in vitro Growth Inhibition

Row | SMILES | inhibition at 25 ppm
34 | COc1ccnc(C(=O)N[C@H]2COC(=O)[C@H](Cc3ccccc3)[C@@H](OC(=O)C(C)C)[C@H](C)OC2=O)c1OC(=O)c1ccc(Cl)nc1 [Compound 669] | < 80%
35 | COc1ccnc(C(=O)NCCCCCCCC(=O)Oc2ccc(C)c(Cl)c2)c1O [Compound 368] | < 80%
36 | COc1ccnc(C(=O)NCCCCCCCCCCCC(=O)OCCSc2ccccc2)c1O [Compound 364] | > 80%
37 | COc1ccnc(C(=O)N[C@H]2COC(=O)[C@H](Cc3ccccc3)[C@@H](OC(=O)C(C)C)[C@H](C)OC2=O)c1OC(=O)c1c(F)c(F)c(F)c(F)c1F [Compound 642] | < 80%
38 | CCCSC(=O)Oc1c(OC)ccnc1C(=O)N[C@H]1COC(=O)[C@H](Cc2ccccc2)[C@@H](OC(=O)C(C)C)[C@H](C)OC1=O [Compound 699] | > 80%
39 | COc1ccnc(C(=O)N[C@H]2COC(=O)[C@H](Cc3ccccc3)[C@@H](OC(=O)C(C)C)[C@H](C)OC2=O)c1OC(=O)CC(C)C [Compound 606] | < 80%
40 | COc1ccnc(C(=O)N[C@H]2COC(=O)[C@H](Cc3ccccc3)[C@@H](OC(=O)C(C)C)[C@H](C)OC2=O)c1OC(=O)c1ccc(Cl)cc1Cl [Compound 643] | < 80%

What follows are compounds tested on Stagonospora nodorum (Leptosphaeria nodorum—LEPTNO) (assay: In vitro fungal growth inhibition, Stagonospora nodorum (LEPTNO)). Settings: not given.
Type: cell-based

Row | SMILES | LEPTNO in vitro Growth Inhibition
41 | CON=C(c1ccc(NC(=O)c2nccc(OC)c2OC(C)=O)cc1)c1cccc(C(F)(F)F)c1 [Compound 707] | − (key: +: at least 80% growth inhibition; −: less than 80% growth inhibition)
42 | COCCC(=O)Oc1c(OC)ccnc1C(=O)Nc1ccc(C(=NOC)c2cccc(C(F)(F)F)c2)cc1 [Compound 708] | + (key: +: at least 80% growth inhibition; −: less than 80% growth inhibition)

Same assay, conditions: Leptosphaeria; 25 ppm in growth medium; read-out: LEPTNO in vitro Growth Inhibition

Row | SMILES | inhibition at 25 ppm
43 | COc1ccnc(C(=O)N[C@H]2COC(=O)[C@H](Cc3ccccc3)[C@@H](OC(=O)C(C)C)[C@H](C)OC2=O)c1OC(=O)c1ccc(Cl)nc1 [Compound 669] | > 80%
44 | COc1ccnc(C(=O)NCCCCCCCC(=O)Oc2ccc(C)c(Cl)c2)c1O [Compound 368] | < 80%
45 | COc1ccnc(C(=O)NCCCCCCCCCCCC(=O)OCCSc2ccccc2)c1O [Compound 364] | < 80%
46 | COc1ccnc(C(=O)N[C@H]2COC(=O)[C@H](Cc3ccccc3)[C@@H](OC(=O)C(C)C)[C@H](C)OC2=O)c1OC(=O)c1c(F)c(F)c(F)c(F)c1F [Compound 642] | > 80%
47 | CCCSC(=O)Oc1c(OC)ccnc1C(=O)N[C@H]1COC(=O)[C@H](Cc2ccccc2)[C@@H](OC(=O)C(C)C)[C@H](C)OC1=O [Compound 699] | > 80%
48 | COc1ccnc(C(=O)N[C@H]2COC(=O)[C@H](Cc3ccccc3)[C@@H](OC(=O)C(C)C)[C@H](C)OC2=O)c1OC(=O)CC(C)C [Compound 606] | > 80%
49 | COc1ccnc(C(=O)N[C@H]2COC(=O)[C@H](Cc3ccccc3)[C@@H](OC(=O)C(C)C)[C@H](C)OC2=O)c1OC(=O)c1ccc(Cl)cc1Cl [Compound 643] | > 80%

What follows are compounds tested on Rhizoctonia solani (RHIZSO) (assay: microbe, parasite or virus in culture). Settings: not given.
Type: cell-based

Row | SMILES | RHIZSO in vitro Growth Inhibition
50 | CON=C(c1ccc(NC(=O)c2nccc(OC)c2OC(C)=O)cc1)c1cccc(C(F)(F)F)c1 [Compound 707] | − (key: +: at least 80% growth inhibition; −: less than 80% growth inhibition)
51 | COCCC(=O)Oc1c(OC)ccnc1C(=O)Nc1ccc(C(=NOC)c2cccc(C(F)(F)F)c2)cc1 [Compound 708] | − (key: +: at least 80% growth inhibition; −: less than 80% growth inhibition)

Same assay, conditions: Rhizoctonia solani, read-out: RHIZSO in vitro Growth Inhibition

Row | SMILES | inhibition at 25 ppm
52 | COc1ccnc(C(=O)N[C@H]2COC(=O)[C@H](Cc3ccccc3)[C@@H](OC(=O)C(C)C)[C@H](C)OC2=O)c1OC(=O)c1ccc(Cl)nc1 [Compound 669] | < 80%
53 | COc1ccnc(C(=O)NCCCCCCCC(=O)Oc2ccc(C)c(Cl)c2)c1O [Compound 368] | > 80%
54 | COc1ccnc(C(=O)NCCCCCCCCCCCC(=O)OCCSc2ccccc2)c1O [Compound 364] | < 80%
55 | COc1ccnc(C(=O)N[C@H]2COC(=O)[C@H](Cc3ccccc3)[C@@H](OC(=O)C(C)C)[C@H](C)OC2=O)c1OC(=O)c1c(F)c(F)c(F)c(F)c1F [Compound 642] | < 80%
56 | CCCSC(=O)Oc1c(OC)ccnc1C(=O)N[C@H]1COC(=O)[C@H](Cc2ccccc2)[C@@H](OC(=O)C(C)C)[C@H](C)OC1=O [Compound 699] | < 80%
57 | COc1ccnc(C(=O)N[C@H]2COC(=O)[C@H](Cc3ccccc3)[C@@H](OC(=O)C(C)C)[C@H](C)OC2=O)c1OC(=O)CC(C)C [Compound 606] | < 80%
58 | COc1ccnc(C(=O)N[C@H]2COC(=O)[C@H](Cc3ccccc3)[C@@H](OC(=O)C(C)C)[C@H](C)OC2=O)c1OC(=O)c1ccc(Cl)cc1Cl [Compound 643] | < 80%
